Measurements from article PMC6421522, “Designing Dual Inhibitors of Anaplastic Lymphoma Kinase (ALK) and Bromodomain-4 (BRD4) by Tuning Kinase Selectivity” (Journal of Medicinal Chemistry, 2019).

What was measured:
Experiment in all cases: KINOMEscan scanEDGE
Type in all cases: binding
Settings in all cases: read-out: % Control (1µM)
VEGFR2 = target: T1, VEGFR2 (Homo sapiens, UniProt P35968)
T1 construct: purchased DiscoveRx (DiscoverX)
Experimental: (§1) Compound X was assayed at 1 μM in the DiscoveRx KINOMEscan (scanEDGE) assay platform. The results for single-concentration binding interactions are reported as “%Ctrl” (DMSO = 100%Ctrl), where lower numbers indicate stronger hits.

FGFR3 = target: T2, FGFR3 (Homo sapiens, UniProt P22607)
T2 construct: purchased DiscoveRx KINOMEscan (scanEDGE); Thermo Fisher SelectScreen (Z'-LYTE) for PLK-1
Experimental: as §1

MEK2 = target: T3, MEK2 (Homo sapiens, UniProt P36507)
T3 construct: purchased DiscoveRx KINOMEscan (scanEDGE); Thermo Fisher SelectScreen (Z'-LYTE) for PLK-1
Experimental: as §1

FAK = target: T4, FAK (Homo sapiens, UniProt Q05397)
T4 construct: purchased DiscoveRx KINOMEscan (scanEDGE); Thermo Fisher SelectScreen (Z'-LYTE) for PLK-1
Experimental: as §1

IGF1R = target: T5, IGF1R (Homo sapiens, UniProt P08069)
T5 construct: purchased DiscoveRx KINOMEscan (scanEDGE); Thermo Fisher SelectScreen (Z'-LYTE) for PLK-1
Experimental: as §1

ABL1-phosphorylated = target: T6, ABL1-phosphorylated (Homo sapiens, UniProt P00519)
T6 construct: purchased DiscoveRx KINOMEscan (scanEDGE); Thermo Fisher SelectScreen (Z'-LYTE) for PLK-1
Experimental: as §1

[1] = target: T7, JAK3(JH1domain-catalytic) (Homo sapiens, UniProt P52333)
T7 construct: JAK3(JH1domain-catalytic); purchased DiscoveRx KINOMEscan (scanEDGE); Thermo Fisher SelectScreen (Z'-LYTE) for PLK-1
Experimental: as §1

JNK2 = target: T8, JNK2 (Homo sapiens, UniProt P45984)
T8 construct: purchased DiscoveRx (DiscoverX)
Experimental: as §1

PAK2 = target: T9, PAK2 (Homo sapiens, UniProt Q13177)
T9 construct: purchased DiscoveRx KINOMEscan (scanEDGE); Thermo Fisher SelectScreen (Z'-LYTE) for PLK-1
Experimental: as §1

[2] = target: T10, JAK2(JH1domain-catalytic) (Homo sapiens, UniProt O60674)
T10 construct: JAK2(JH1domain-catalytic); purchased DiscoveRx KINOMEscan (scanEDGE); Thermo Fisher SelectScreen (Z'-LYTE) for PLK-1
Experimental: as §1

MET = target: T11, MET (Homo sapiens, UniProt P08581)
T11 construct: purchased DiscoveRx KINOMEscan (scanEDGE); Thermo Fisher SelectScreen (Z'-LYTE) for PLK-1
Experimental: as §1

PAK1 = target: T12, PAK1 (Homo sapiens, UniProt Q13153)
T12 construct: purchased DiscoveRx KINOMEscan (scanEDGE); Thermo Fisher SelectScreen (Z'-LYTE) for PLK-1
Experimental: as §1

SRC = target: T13, SRC (Homo sapiens, UniProt P12931)
T13 construct: purchased DiscoveRx KINOMEscan (scanEDGE); Thermo Fisher SelectScreen (Z'-LYTE) for PLK-1
Experimental: as §1

PAK4 = target: T14, PAK4 (Homo sapiens, UniProt O96013)
T14 construct: purchased DiscoveRx KINOMEscan (scanEDGE); Thermo Fisher SelectScreen (Z'-LYTE) for PLK-1
Experimental: as §1

JNK1 = target: T15, JNK1 (Homo sapiens, UniProt P45983)
T15 construct: purchased DiscoveRx KINOMEscan (scanEDGE); Thermo Fisher SelectScreen (Z'-LYTE) for PLK-1
Experimental: as §1

AKT2 = target: T16, AKT2 (Homo sapiens, UniProt P31751)
T16 construct: purchased DiscoveRx KINOMEscan (scanEDGE); Thermo Fisher SelectScreen (Z'-LYTE) for PLK-1
Experimental: as §1

PLK4 = target: T17, PLK4 (Homo sapiens, UniProt O00444)
T17 construct: purchased DiscoveRx KINOMEscan (scanEDGE); Thermo Fisher SelectScreen (Z'-LYTE) for PLK-1
Experimental: as §1

IKK-alpha = target: T18, IKK-alpha (Homo sapiens, UniProt O15111)
T18 construct: purchased DiscoveRx KINOMEscan (scanEDGE); Thermo Fisher SelectScreen (Z'-LYTE) for PLK-1
Experimental: as §1

EPHA2 = target: T19, EPHA2 (Homo sapiens, UniProt P29317)
T19 construct: purchased DiscoveRx KINOMEscan (scanEDGE); Thermo Fisher SelectScreen (Z'-LYTE) for PLK-1
Experimental: as §1

EGFR(L858R) = target: T20, EGFR(L858R) (Homo sapiens, UniProt P00533, L858R)
T20 construct: purchased DiscoveRx KINOMEscan (scanEDGE); Thermo Fisher SelectScreen (Z'-LYTE) for PLK-1
Experimental: as §1

PKAC-alpha = target: T21, PKAC-alpha (Homo sapiens, UniProt P17612)
T21 construct: purchased DiscoveRx KINOMEscan (scanEDGE); Thermo Fisher SelectScreen (Z'-LYTE) for PLK-1
Experimental: as §1

YANK3 = target: T22, YANK3 (Homo sapiens, UniProt Q86UX6)
T22 construct: purchased DiscoveRx (DiscoverX)
Experimental: as §1

CHEK1 = target: T23, CHEK1 (Homo sapiens, UniProt O14757)
T23 construct: purchased DiscoveRx KINOMEscan (scanEDGE); Thermo Fisher SelectScreen (Z'-LYTE) for PLK-1
Experimental: as §1

TGFBR1 = target: T24, TGFBR1 (Homo sapiens, UniProt P36897)
T24 construct: purchased DiscoveRx KINOMEscan (scanEDGE); Thermo Fisher SelectScreen (Z'-LYTE) for PLK-1
Experimental: as §1

MKNK2 = target: T25, MKNK2 (Homo sapiens, UniProt Q9HBH9)
T25 construct: purchased DiscoveRx KINOMEscan (scanEDGE); Thermo Fisher SelectScreen (Z'-LYTE) for PLK-1
Experimental: as §1

DCAMKL1 = target: T26, DCAMKL1 (Homo sapiens, UniProt O15075)
T26 construct: purchased DiscoveRx KINOMEscan (scanEDGE); Thermo Fisher SelectScreen (Z'-LYTE) for PLK-1
Experimental: as §1

[3] = target: T27, TYK2(JH1domain-catalytic) (Homo sapiens, UniProt P29597)
T27 construct: TYK2(JH1domain-catalytic); purchased DiscoveRx KINOMEscan (scanEDGE); Thermo Fisher SelectScreen (Z'-LYTE) for PLK-1
Experimental: as §1

MEK1 = target: T28, MEK1 (Homo sapiens, UniProt Q02750)
T28 construct: purchased DiscoveRx KINOMEscan (scanEDGE); Thermo Fisher SelectScreen (Z'-LYTE) for PLK-1
Experimental: as §1

ERBB4 = target: T29, ERBB4 (Homo sapiens, UniProt Q15303)
T29 construct: purchased DiscoveRx KINOMEscan (scanEDGE); Thermo Fisher SelectScreen (Z'-LYTE) for PLK-1
Experimental: as §1

PDGFRB = target: T30, PDGFRB (Homo sapiens, UniProt P09619)
T30 construct: purchased DiscoveRx KINOMEscan (scanEDGE); Thermo Fisher SelectScreen (Z'-LYTE) for PLK-1
Experimental: as §1

CSF1R = target: T31, CSF1R (Homo sapiens, UniProt P07333)
T31 construct: purchased DiscoveRx KINOMEscan (scanEDGE); Thermo Fisher SelectScreen (Z'-LYTE) for PLK-1
Experimental: as §1

ACVR1B = target: T32, ACVR1B (Homo sapiens, UniProt P36896)
T32 construct: purchased DiscoveRx KINOMEscan (scanEDGE); Thermo Fisher SelectScreen (Z'-LYTE) for PLK-1
Experimental: as §1

PIM2 = target: T33, PIM2 (Homo sapiens, UniProt Q9P1W9)
T33 construct: purchased DiscoveRx KINOMEscan (scanEDGE); Thermo Fisher SelectScreen (Z'-LYTE) for PLK-1
Experimental: as §1

PIK3C2B = target: T34, PIK3C2B (Homo sapiens, UniProt O00750)
T34 construct: purchased DiscoveRx KINOMEscan (scanEDGE); Thermo Fisher SelectScreen (Z'-LYTE) for PLK-1
Experimental: as §1

PDPK1 = target: T35, PDPK1 (Homo sapiens, UniProt O15530)
T35 construct: purchased DiscoveRx KINOMEscan (scanEDGE); Thermo Fisher SelectScreen (Z'-LYTE) for PLK-1
Experimental: as §1

T20 sequence (P00533 25-1210 L858R): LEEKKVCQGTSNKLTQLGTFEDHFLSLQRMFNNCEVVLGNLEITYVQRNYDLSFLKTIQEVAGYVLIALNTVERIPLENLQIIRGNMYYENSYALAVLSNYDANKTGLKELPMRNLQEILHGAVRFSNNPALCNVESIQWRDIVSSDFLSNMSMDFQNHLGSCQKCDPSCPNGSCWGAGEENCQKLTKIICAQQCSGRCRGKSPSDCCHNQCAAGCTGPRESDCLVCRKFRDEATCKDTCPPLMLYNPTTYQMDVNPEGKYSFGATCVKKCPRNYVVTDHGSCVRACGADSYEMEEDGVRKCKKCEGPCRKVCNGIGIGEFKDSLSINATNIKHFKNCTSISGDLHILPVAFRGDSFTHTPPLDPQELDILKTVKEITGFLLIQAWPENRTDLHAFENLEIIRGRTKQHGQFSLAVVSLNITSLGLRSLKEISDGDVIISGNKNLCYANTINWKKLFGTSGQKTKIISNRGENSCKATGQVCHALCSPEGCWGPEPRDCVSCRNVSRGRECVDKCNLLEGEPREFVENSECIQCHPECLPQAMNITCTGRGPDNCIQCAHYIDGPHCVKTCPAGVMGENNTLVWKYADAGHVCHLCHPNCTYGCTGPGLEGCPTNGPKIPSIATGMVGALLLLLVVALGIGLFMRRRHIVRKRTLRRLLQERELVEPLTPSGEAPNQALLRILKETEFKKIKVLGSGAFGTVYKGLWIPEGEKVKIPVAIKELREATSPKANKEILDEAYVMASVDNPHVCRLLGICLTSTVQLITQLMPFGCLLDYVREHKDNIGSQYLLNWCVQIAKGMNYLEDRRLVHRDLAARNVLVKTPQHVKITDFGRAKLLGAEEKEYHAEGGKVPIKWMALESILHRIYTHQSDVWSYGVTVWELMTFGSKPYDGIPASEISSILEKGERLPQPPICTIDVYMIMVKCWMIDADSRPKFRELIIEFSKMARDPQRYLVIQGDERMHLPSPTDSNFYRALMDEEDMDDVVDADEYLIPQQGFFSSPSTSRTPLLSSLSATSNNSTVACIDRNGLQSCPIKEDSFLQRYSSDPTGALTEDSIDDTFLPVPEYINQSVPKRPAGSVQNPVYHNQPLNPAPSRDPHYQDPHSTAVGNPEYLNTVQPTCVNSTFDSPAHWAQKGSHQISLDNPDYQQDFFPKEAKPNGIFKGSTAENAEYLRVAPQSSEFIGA
T12 sequence (Q13153 whole entry): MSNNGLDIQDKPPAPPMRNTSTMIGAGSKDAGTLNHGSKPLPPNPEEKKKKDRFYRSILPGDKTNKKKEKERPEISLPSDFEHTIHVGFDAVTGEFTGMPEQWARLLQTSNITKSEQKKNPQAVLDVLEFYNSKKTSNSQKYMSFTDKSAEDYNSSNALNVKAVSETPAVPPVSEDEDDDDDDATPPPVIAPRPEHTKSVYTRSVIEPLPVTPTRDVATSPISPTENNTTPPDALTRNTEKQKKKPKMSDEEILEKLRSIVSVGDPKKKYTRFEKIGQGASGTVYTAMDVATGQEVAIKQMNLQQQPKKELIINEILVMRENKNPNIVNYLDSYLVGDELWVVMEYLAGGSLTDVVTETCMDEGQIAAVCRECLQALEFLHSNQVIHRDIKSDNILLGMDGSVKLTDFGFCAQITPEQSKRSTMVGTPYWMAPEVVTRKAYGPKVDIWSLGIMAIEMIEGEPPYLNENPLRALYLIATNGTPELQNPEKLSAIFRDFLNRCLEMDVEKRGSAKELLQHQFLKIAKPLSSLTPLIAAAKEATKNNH
T6 sequence (P00519 whole entry): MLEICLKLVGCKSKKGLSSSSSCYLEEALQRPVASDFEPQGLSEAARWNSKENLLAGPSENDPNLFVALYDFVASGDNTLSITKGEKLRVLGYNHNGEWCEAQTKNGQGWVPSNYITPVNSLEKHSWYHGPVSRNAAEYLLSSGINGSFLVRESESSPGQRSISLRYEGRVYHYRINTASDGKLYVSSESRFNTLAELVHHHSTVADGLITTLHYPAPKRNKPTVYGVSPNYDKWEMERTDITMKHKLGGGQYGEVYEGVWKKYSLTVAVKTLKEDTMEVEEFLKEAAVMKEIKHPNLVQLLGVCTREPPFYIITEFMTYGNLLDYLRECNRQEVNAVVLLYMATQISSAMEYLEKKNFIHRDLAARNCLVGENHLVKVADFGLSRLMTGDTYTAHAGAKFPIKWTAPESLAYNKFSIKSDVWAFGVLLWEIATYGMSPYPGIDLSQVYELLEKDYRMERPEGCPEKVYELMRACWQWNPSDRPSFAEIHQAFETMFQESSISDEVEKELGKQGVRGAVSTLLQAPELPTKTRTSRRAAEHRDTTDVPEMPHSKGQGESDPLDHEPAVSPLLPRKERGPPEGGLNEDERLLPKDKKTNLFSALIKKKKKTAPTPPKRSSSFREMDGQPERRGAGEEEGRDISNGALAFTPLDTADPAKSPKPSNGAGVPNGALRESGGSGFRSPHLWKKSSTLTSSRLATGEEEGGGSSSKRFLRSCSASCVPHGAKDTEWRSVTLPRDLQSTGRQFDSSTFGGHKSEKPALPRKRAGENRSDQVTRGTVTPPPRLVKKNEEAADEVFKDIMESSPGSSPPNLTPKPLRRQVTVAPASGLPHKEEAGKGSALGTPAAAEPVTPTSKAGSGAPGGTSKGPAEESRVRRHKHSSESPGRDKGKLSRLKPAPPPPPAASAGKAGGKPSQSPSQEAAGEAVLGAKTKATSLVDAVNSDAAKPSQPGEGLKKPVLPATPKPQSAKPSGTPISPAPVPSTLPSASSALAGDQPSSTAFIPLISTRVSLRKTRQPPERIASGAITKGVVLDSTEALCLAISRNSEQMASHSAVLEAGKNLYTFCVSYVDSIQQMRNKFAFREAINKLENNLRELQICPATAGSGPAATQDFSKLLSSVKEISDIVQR
T10 sequence (O60674 840-1132 limits assumed): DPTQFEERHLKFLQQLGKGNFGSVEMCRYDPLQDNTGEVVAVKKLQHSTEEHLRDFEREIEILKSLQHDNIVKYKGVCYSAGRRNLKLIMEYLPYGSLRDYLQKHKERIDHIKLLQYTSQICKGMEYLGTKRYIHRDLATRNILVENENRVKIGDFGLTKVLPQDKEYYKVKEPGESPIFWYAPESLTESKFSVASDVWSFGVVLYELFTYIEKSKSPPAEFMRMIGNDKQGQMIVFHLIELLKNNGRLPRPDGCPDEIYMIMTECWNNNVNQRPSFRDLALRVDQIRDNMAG
T28 sequence (Q02750 whole entry): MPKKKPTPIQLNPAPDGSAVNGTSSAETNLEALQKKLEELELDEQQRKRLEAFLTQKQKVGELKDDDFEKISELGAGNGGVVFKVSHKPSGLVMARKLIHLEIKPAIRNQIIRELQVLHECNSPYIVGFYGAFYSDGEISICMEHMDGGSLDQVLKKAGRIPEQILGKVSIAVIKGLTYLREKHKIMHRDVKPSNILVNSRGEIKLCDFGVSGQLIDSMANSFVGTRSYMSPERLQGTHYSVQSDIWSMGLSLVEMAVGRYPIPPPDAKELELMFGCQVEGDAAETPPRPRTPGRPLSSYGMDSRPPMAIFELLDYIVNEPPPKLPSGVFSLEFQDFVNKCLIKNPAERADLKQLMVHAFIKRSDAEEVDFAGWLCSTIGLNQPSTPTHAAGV
T14 sequence (O96013 whole entry): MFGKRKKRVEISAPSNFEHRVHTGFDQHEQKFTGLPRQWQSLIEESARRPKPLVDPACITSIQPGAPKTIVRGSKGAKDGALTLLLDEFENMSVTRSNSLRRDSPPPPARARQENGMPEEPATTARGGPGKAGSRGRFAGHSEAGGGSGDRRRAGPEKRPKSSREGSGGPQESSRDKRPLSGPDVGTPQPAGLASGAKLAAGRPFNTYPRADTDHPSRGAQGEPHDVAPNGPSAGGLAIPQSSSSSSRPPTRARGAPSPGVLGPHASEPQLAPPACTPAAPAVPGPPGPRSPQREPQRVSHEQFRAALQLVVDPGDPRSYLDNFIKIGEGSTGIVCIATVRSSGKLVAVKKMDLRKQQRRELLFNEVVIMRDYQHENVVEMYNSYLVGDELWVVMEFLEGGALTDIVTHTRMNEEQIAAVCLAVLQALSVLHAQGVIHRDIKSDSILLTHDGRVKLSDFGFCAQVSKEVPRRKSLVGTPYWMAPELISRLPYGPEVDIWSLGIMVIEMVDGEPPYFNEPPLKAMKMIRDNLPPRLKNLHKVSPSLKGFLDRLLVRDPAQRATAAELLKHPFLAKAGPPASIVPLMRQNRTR
T2 sequence (P22607 23-806): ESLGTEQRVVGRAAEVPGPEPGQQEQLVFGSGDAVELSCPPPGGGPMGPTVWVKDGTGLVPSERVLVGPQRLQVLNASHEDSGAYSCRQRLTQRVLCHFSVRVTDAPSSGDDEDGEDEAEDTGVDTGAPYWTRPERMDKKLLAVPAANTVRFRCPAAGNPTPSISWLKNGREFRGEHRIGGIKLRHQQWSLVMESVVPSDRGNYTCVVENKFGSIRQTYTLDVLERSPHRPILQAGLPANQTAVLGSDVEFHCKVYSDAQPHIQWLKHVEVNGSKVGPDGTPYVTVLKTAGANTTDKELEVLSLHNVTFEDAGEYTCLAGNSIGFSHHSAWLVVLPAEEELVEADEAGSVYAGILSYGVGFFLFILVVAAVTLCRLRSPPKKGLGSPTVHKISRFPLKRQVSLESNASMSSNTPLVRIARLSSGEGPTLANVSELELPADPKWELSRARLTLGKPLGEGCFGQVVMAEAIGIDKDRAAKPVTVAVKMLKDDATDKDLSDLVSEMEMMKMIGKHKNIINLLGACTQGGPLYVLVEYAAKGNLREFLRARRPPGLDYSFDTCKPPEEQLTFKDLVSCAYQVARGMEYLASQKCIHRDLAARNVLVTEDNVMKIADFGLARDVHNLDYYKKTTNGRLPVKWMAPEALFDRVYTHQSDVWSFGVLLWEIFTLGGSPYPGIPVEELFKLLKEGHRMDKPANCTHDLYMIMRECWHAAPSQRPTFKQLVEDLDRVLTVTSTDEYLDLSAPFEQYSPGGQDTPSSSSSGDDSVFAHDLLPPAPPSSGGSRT

remaining binding at 1 µM (VEGFR2): 87%
remaining binding at 1 µM (FGFR3): 98%
remaining binding at 1 µM (MEK2): 100%
remaining binding at 1 µM (FAK): 60%
remaining binding at 1 µM (IGF1R): 77%
remaining binding at 1 µM (ABL1-phosphorylated): 100%
remaining binding at 1 µM [1]: 100%
remaining binding at 1 µM (JNK2): 44%
remaining binding at 1 µM (PAK2): 100%
remaining binding at 1 µM [2]: 83%
remaining binding at 1 µM (MET): 94%
remaining binding at 1 µM (PAK1): 100%
remaining binding at 1 µM (SRC): 100%
remaining binding at 1 µM (PAK4): 100%
remaining binding at 1 µM (JNK1): 64%
remaining binding at 1 µM (AKT2): 100%
remaining binding at 1 µM (PLK4): 100%
remaining binding at 1 µM (IKK-alpha): 97%
remaining binding at 1 µM (EPHA2): 100%
remaining binding at 1 µM (EGFR(L858R)): 69%
remaining binding at 1 µM (PKAC-alpha): 100%
remaining binding at 1 µM (YANK3): 100%
remaining binding at 1 µM (CHEK1): 100%
remaining binding at 1 µM (TGFBR1): 94%
remaining binding at 1 µM (MKNK2): 60%
remaining binding at 1 µM (DCAMKL1): 100%
remaining binding at 1 µM [3]: 100%
remaining binding at 1 µM (MEK1): 100%
remaining binding at 1 µM (ERBB4): 93%
remaining binding at 1 µM (PDGFRB): 100%
remaining binding at 1 µM (CSF1R): 100%
remaining binding at 1 µM (ACVR1B): 85%
remaining binding at 1 µM (PIM2): 86%
remaining binding at 1 µM (PIK3C2B): 88%
remaining binding at 1 µM (PDPK1): 98%
SMILES: CCOc1cc(C2CCN(C)CC2)ccc1Nc1ncc2c(n1)N(Cc1cc(C)cs1)[C@H](CC)C(=O)N2C [16k, (R)-2-((2-Ethoxy-4-(1-methylpiperidin-4-yl)phenyl)amino)-7-ethyl-5-methyl-8-((4-methylthiophen-2-yl)methyl)-7,8-dihydropteridin-6(5H)-one]
